Experimental data published in patent US20210128690A1, “METHODS OF ADMINISTERING HEPCIDIN” (La Jolla Pharmaceutical Company, priority 2016, published 2021).

Assay: hepcidin administration to human subjects (patients with sickle cell disease or hereditary hemochromatosis)
Format: in vivo
Details: doses of 1 mg hepcidin and 5 mg hepcidin
Source text: FIG. 1 illustrates the change in serum ferritin levels at baseline and 8 days post hepcidin administration in two patients with sickle cell disease and a high ferritin serum baseline.
Efficacy at this dosing was not expected based on animal studies in mice, rats, and dogs.

SMILES: CC[C@H](C)[C@@H]1NC(=O)[C@@H](NC(=O)[C@@H](NC(=O)[C@@H]2CCCN2C(=O)[C@H](Cc2ccccc2)NC(=O)[C@H](Cc2c[nH]cn2)NC(=O)[C@@H](NC(=O)[C@@H](N)CC(=O)O)[C@@H](C)O)[C@@H](C)CC)CSSC[C@@H](C(=O)N[C@@H](CCCCN)C(=O)N[C@H](C(=O)O)[C@@H](C)O)NC(=O)[C@@H]2CSSC[C@@H]3NC(=O)[C@@H]4CSSC[C@H](NC(=O)[C@H](Cc5ccccc5)NC1=O)C(=O)N[C@@H](CSSC[C@H](NC(=O)[C@H](CCCCN)NC(=O)[C@H](CO)NC(=O)[C@H](CCCNC(=N)N)NC(=O)[C@H](Cc1c[nH]cn1)NC3=O)C(=O)NCC(=O)N[C@@H](CCSC)C(=O)N2)C(=O)NCC(=O)N4 [hepcidin]
- efficacy in human subjects: display efficacy
